{
  "source": "patent US11266645B2",
  "about": "“Methods for treating lymphoma” (Alexion Pharmaceuticals, Inc., priority 2018, dated 2022)",
  "key": {"[1]": {"tested_on": "U-CLL cells and M-CLL cells", "experiment": "IL-4 treated U-CLL and M-CLL cells, immunoblotting", "format": "cell-based, human", "settings": "1 μM, 10 ng/mL IL-4, 24 hours", "description": "U-CLL cells and M-CLL cells were treated with and without 10 ng/mL IL-4 for 24 hours in the presence or absence of 1 μM cerdulatinib. Immunoblotting was used to protein expression among the different treatments. […] FIGS. 10A-10G, 11A-11G and 12A-12G show the fold changes of the protein expression."}, "[2]": {"experiment": "Food and proton pump inhibitor crossover PK study in healthy subjects", "format": "in vivo, human", "settings": "30 mg oral; for Cmax / AUC(0-inf) / half-life / Tmax: human; for Cmax / AUC(0-inf): po, 30 mg; for AUC(0-inf): read-out: AUC0−inf Mean; for half-life: read-out: T1/2 Mean (converted); for Tmax: read-out: Tmax Median", "description": "In an open-label, randomized, 3-period crossover study, healthy subjects received 30 mg cerdulatinib orally. The 3-period treatments were fasted, high-fat diet, and proton pump inhibitor (PPI) esomaprazole, with 14-day washout between treatments. Blood samples were collected up to 72 hours after cerdulatinib treatment. PK endpoints were area under the curve (AUC), maximum concentration (Cmax), Time to Cmax (Tmax), and half-live (T1/2)."}, "[3]": {"tested_on": "JAK/STAT signaling (JAK1, JAK3, and TYK2 dependent)", "experiment": "Whole blood IL-2, IL-4, IL-6 stimulated STAT phosphorylation after oral dosing", "format": "cell-based, human", "settings": "for IC50: Homo sapiens", "description": "For PD assessments, serial blood samples were drawn into lithium-heparin vacutainer tubes on Day 1 prior to dosing and again at 0.5, 1, 2, and 4 hours post-dose; on Day 8 at pre-dose and 2 hours post-dose; and Day 28 prior to dosing. Multiple assays were performed using the Day 1 and Day 8 PD samples. SYK-mediated BCR signaling in whole blood was measured prior to and post-dosing by stimulating 100 μL whole blood with 2 μL of anti-human IgD (IgG fraction) and 10 μg anti-human IgM for 10 minutes at 37° C., measuring the induction of pSYK Y525/526, pAKT S473, and pERK Y204. Similarly, whole blood was stimulated with 10 ng/mL of IL-2 (JAK1/3-dependent), IL-4 (JAK1/3-dependent), IL-6 (JAK1/TYK2-dependent) or GM-CSF (JAK2-dependent) for 20 minutes, measuring the induction of pSTAT5 Y694 in T-cells and NK cells, the induction of pSTAT6 Y641 in B cells, T-cells, NK cells, and monocytes, the induction of pSTAT3 Y705 in monocytes, B cells, and T-cells, and the induction of pSTAT5 Y694 in monocytes, respectively. The technical details for these assays were described in Coffey, G., et al., J Pharmacol Exp Ther, 2014. 351(3): p. 538-48. With blood samples from the CLL patients only, tumor cell surface expression of CD5, CD69, CD86, and CXCR4 pre-dose on days 1 and 28 were monitored. The recommended volume of antibodies were applied directly to 100 μL whole blood and incubated for 1 hour at room temperature. Afterwards, 4 mL of BD Lyse/Fix reagent was added to the blood to lyse red blood cells and fix the remaining leukocytes, followed by washing and FACS analysis. For each assay, data were collected using an LSR II instrument (BD Bioscience, San Jose, Calif.) and analyzed using Flowjo software (Flowjo LLC, Ashland, Oreg.). […]\nThe data were analyzed using the statistical language R and the accessory packages ggplot2 (Wickham, H., Elegant Graphics for Data Analysis. 2016: Springer-Verlag) and drc (Ritz, C., et al., Dose-Response Analysis Using R. PLoS One, 2015. 10(12): p. e0146021). For cell signaling assays, percent inhibition was determined by normalizing the receptor-induced phosphorylation events mean fluorescent intensity (MFI) to that of pre-dose receptor-induced MFI. The resulting relative activities were analyzed by nonlinear regression to a 3-parameter log-logistic function with an upper and lower limit set at 100 and 0%. […] Statistically significant differences between the healthy and patient serum marker at all cycles (Cycle 1 Day 1, Cycle 1 Day 8, and Cycle 2 Day 1) were detected by paired t test. […] The significance of the relation between maximum tumor response and change in a specific biomarker was evaluated using Spearman-Rank-correlation and p value."}, "[4]": {"tested_on": "Follicular lymphoma (FL) cell lines SU-DHL6, DOHH2, WSU-FSCCL", "experiment": "FL cell line assays (CellTiter Glo, Edu, caspase 3, immunoblot, phosphoflow)", "format": "cell-based, human", "description": "CellTiter Glo, Edu and caspase 3 assays were used to examine the effects of cerdulatinib alone and in combination with venetoclax. Percent inhibition was determined relative to vehicle control. Edu incorporation and caspase 3 cleavage were performed using FACS-based assays and CellTiter Glo in a 96-well black plate.\nFollicular lymphoma (FL) cell lines SU-DHL6, DOHH2, or WSU-FSCCL were treated with cerdulatinib in the presence or absence of venetoclax at the indicated concentrations for 24-72 hours and analyzed by Edu, CellTiter-Glo, Annexin V/PI, and CellTiter-Glo).\nWhole cell lysates were subjected to immunoblotting on 12% gels and probed with the indicated antibodies using established protocols. Phosphoflow cytometry was performed on an LSRII following cell fixing in 4% PFA and permeabilzation with 50% methanol. Phospho-antibody staining was performed for 1 hour at room temperature."}, "[5]": {"tested_on": "Primary CLL cells", "experiment": "Primary CLL cells with IL-4/CD40L, immunoblotting and annexin V/PI viability", "format": "cell-based, human", "description": "Combination studies were performed with 10 or 100 nM venetoclax or 300 and 1000 nM S63846. Cell viability was assessed by annexin V/PI using flow cytometry and changes in protein expression by immunoblotting."}, "[6]": {"tested_on": "patients with relapsed/refractory Follicular Lymphoma", "settings": "r/r FL, single agent; cited from earlier work"}},
  "note": "Read-outs that look alike come from different tables or passages of the source.",
  "data": [
    {"compound": "CCS(=O)(=O)N1CCN(c2ccc(Nc3ncc(C(N)=O)c(NC4CC4)n3)cc2)CC1", "note": "[cerdulatinib, 4-(cyclopropylamino)-2-((4-(4-(ethylsulfonyl)piperazin-1-yl)phenyl)amino)pyrimidine-5-carboxamide]", "values": [
      {"measurement": "IL-4 induced increase of GABA1, FOXP1, SOCS1, and SOCS3 protein expression", "setting": "[1]", "result": "suppresses"},
      {"measurement": "AUC0−inf Ratio Fed/Fasted", "setting": "[2]", "result": 1.16},
      {"measurement": "AUC0−inf Ratio PPI/Fasted", "setting": "[2]", "result": 1.06},
      {"measurement": "Cmax Ratio Fed/Fasted", "setting": "[2]", "result": 1.11},
      {"measurement": "Cmax Ratio PPI/Fasted", "setting": "[2]", "result": 1.02},
      {"measurement": "T1/2 Mean", "setting": "[2]; Fasted", "result": 14.5, "unit": "h"},
      {"measurement": "Cmax", "setting": "[2]; blood, Fed (high-fat diet)", "result": 187, "unit": "ng/mL"},
      {"measurement": "AUC(0-inf)", "setting": "[2]; blood, Fed (high-fat diet)", "result": 4060, "unit": "ng·h/mL"},
      {"measurement": "half-life", "setting": "[2]; blood, Fed (high-fat diet)", "result": 13.6, "unit": "h"},
      {"measurement": "Tmax", "setting": "[2]; blood, Fed (high-fat diet)", "result": 6, "unit": "h"},
      {"measurement": "Cmax", "setting": "[2]; in vivo, Fasted", "result": 168, "unit": "ng/mL"},
      {"measurement": "AUC(0-inf)", "setting": "[2]; in vivo, Fasted", "result": 3460, "unit": "ng·h/mL"},
      {"measurement": "Cmax", "setting": "[2]; in vivo, PPI (esomaprazole)", "result": 170, "unit": "ng/mL"},
      {"measurement": "AUC(0-inf)", "setting": "[2]; in vivo, PPI (esomaprazole)", "result": 3680, "unit": "ng·h/mL"},
      {"measurement": "half-life", "setting": "[2]; in vivo, PPI (esomaprazole)", "result": 14.5, "unit": "h"},
      {"measurement": "Tmax", "setting": "[2]; in vivo, PPI (esomaprazole)", "result": 4, "unit": "h"},
      {"measurement": "IC50", "setting": "[3]; B-cell, B cells, patients, read-out: average IC50, IL-4 signaling (pSTAT6 Y641)", "result": 1080, "unit": "nM"},
      {"measurement": "IC50", "setting": "[3]; B-cell, B cells, patients, read-out: average IC50, IL-6 signaling (pSTAT3 Y705)", "result": 220, "unit": "nM"},
      {"measurement": "IC50", "setting": "[3]; po, depending on the cell lineage, whole blood, read-out: IC50, measures of JAK/STAT signaling", "result": "190 to 1110", "unit": "nM"},
      {"measurement": "inhibition of IL-2, IL-4, and IL-6 signaling", "setting": "[3]; concentration-dependent", "result": "potently inhibited"},
      {"measurement": "basal expression of phospho (p)AKT and pERK, anti-IgM and anti-IgG mediated signaling", "setting": "[4]; FL cell lines", "result": "inhibit"},
      {"measurement": "Bcl-2 expression", "setting": "[4]; FL lines", "result": "minimal impact"},
      {"measurement": "Bim RNA level", "setting": "[4]; WSU and DHL6 cells", "result": "increased"},
      {"measurement": "Mcl-1 RNA levels", "setting": "[4]; cerdulatinib alone", "result": "remained unchanged"},
      {"measurement": "Mcl-1 expression", "setting": "[4]; most pronounced in WSU-FSCCL cells", "result": "down modulation"},
      {"measurement": "IL-4/CD40L induced Mcl-1 and Bcl-XL expression", "setting": "[5]; 1 μM", "result": "significantly reduced"},
      {"measurement": "inhibition of Mcl-1 and Bcl-XL compared to the other kinase inhibitors", "setting": "[5]; 1 μM", "result": "more robust inhibition"},
      {"measurement": "synergy with venetoclax to induce apoptosis", "setting": "[5]; CLL cells", "result": "synergized"},
      {"measurement": "Bim induction compared to idelalisib and ibrutinib", "setting": "[5]; equivalent drug concentrations", "result": "induced to greater levels"},
      {"measurement": "ORR, previously reported", "setting": "[6]", "result": "~45", "unit": "%"}
    ]}
  ]
}
